Results on 14 compounds are retold here after US12077555B2, “STAT degraders and uses thereof” (Kymera Therapeutics, Inc., priority 2019, dated 2024).

For the assay, the target named is STAT3 (Homo sapiens, UniProt P40763). The experiment in a line: STAT3 HiBiT degradation assay in transfected A549 cells. It is filed as cell-based. Set-up: expressed in transfected cells; host or cells: A549. Put shortly: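 Transfected A549 cells (~2000/well) plated 24 h, then treated 24 h at 37 °C, 5% CO2 with a 3-fold, 10-point compound dilution. HiBiT lytic luminescence read after 10 min at room temperature; remaining STAT3 normalized to negative and positive controls, four-parameter fit. DC50 binned A <0.01, B 0.01–0.1, C 0.1–1.0, D >1.0 µM.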
Chain of STAT3 (P40763 whole entry): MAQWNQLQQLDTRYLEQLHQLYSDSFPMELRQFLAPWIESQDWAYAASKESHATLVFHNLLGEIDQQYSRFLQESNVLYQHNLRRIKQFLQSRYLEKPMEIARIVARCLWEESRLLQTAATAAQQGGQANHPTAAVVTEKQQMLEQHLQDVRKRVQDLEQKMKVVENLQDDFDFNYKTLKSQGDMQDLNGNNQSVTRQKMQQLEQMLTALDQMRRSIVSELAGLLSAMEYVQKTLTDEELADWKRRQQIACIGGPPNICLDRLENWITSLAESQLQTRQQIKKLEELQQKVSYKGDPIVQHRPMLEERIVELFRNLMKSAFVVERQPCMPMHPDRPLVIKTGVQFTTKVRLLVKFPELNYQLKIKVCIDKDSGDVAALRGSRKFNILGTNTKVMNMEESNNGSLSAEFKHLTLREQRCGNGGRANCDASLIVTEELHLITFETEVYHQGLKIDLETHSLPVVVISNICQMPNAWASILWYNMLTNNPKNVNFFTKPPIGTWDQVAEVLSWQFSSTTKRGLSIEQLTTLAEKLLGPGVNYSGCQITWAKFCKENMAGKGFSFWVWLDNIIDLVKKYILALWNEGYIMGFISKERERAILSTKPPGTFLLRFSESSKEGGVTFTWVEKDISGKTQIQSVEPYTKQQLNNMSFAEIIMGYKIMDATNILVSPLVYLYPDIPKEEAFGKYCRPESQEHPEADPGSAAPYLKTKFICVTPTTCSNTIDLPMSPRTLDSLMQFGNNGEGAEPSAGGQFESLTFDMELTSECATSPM

Where [1] appears, read: A549, 24 h; read-out: STAT3 HiBiT A549 degradation 24 h: Average external-Abs DC50.

Like-named read-outs stand apart in the source and are kept apart here. Some results are limits rather than exact numbers.

The term DC50 denotes the concentration at which degradation of the target reaches its halfway point. As to `Cn1c(=O)n(C2CCC(=O)NC2=O)c2ccc(CC3CCC(CC(=O)N4CC[C@H]5CC[C@@H](C(=O)N[C@H](CCC(N)=O)C(=O)NCc6ccc(S(C)(=O)=O)cc6)N5C(=O)[C@@H](NC(=O)c5cc6cc(C(=O)P(=O)(O)O)ccc6[nH]5)C4)CC3)cc21` (stereo partly drawn) [Compound I-230, 2-[[(5S,8S,10aR)-8-[[(1R)-3-carbamoyl-1-[[(4-methanesulfonylphenyl)methyl]carbamoyl]propyl]carbamoyl]-6-oxo-3-[2-[(1S,4S)-4-[[1-(2,6-dioxopiperidin-3-yl)-3-methyl-2-oxo-1,3-benzodiazol-5-yl]methyl]cyclohexyl]acetyl]-octahydropyrrolo[1,2-a][1,5]diazocin-5-yl]carbamoyl]-1H-indole-5-carbonylphosphonic acid], the DC50 under setting [1] was over 1000 nM. `Cc1ncsc1-c1ccc(CNC(=O)[C@@H]2C[C@@H](O)CN2C(=O)[C@@H](NC(=O)CCCCCc2cccc(OC[C@H](CCC(N)=O)NC(=O)[C@@H]3Cc4cccc5c4N3C(=O)[C@@H](NC(=O)c3cc4cc(C(=O)P(=O)(O)O)ccc4[nH]3)CC5)c2)C(C)(C)C)cc1` [Compound I-164, 2-[[(2S,11S)-2-[[(2S)-4-carbamoyl-1-[3-(5-[[(2S)-1-[(2S,4R)-4-hydroxy-2-([[4-(4-methyl-1,3-thiazol-5-yl)phenyl]methyl]carbamoyl)pyrrolidin-1-yl]-3,3-dimethyl-1-oxobutan-2-yl]carbamoyl]pentyl)phenoxy]butan-2-yl]carbamoyl]-12-oxo-1-azatricyclo[6.4.1.0^[4,13]]trideca-4(13),5,7-trien-11-yl]carbamoyl]-1H-indole-5-carbonylphosphonic acid]: the half-maximal degradation concentration (DC50) under setting [1] lay within 10 to 100 nM. In the case of `Cn1c(=O)n(C2CCC(=O)NC2=O)c2cccc(CCCCCCC(=O)N3CC[C@H]4CC[C@@H](C(=O)N[C@@H](CCC(N)=O)C(=O)NC(c5ccccc5)c5ccccc5)N4C(=O)[C@@H](NC(=O)c4cc5cc(C(=O)P(=O)(O)O)ccc5[nH]4)C3)c21` (stereo partly drawn) [Compound I-124, 2-[[(5S,8S,10aR)-8-[[(1S)-3-carbamoyl-1-(diphenylmethylcarbamoyl)propyl]carbamoyl]-3-[7-[1-(2,6-dioxopiperidin-3-yl)-3-methyl-2-oxo-1,3-benzodiazol-4-yl]heptanoyl]-6-oxo-octahydropyrrolo[1,2-a][1,5]diazocin-5-yl]carbamoyl]-1H-indole-5-carbonylphosphonic acid], the 50% degradation concentration (DC50) under setting [1] is over 1000 nM. For `Cc1cc(CCCCCC(=O)N[C@H](C(=O)N2C[C@H](O)C[C@H]2C(=O)N[C@@H](C)c2ccc(-c3scnc3C)cc2)C(C)(C)C)cc(OC[C@H](CCC(N)=O)NC(=O)[C@@H]2Cc3cccc4c3N2C(=O)[C@@H](NC(=O)c2cc3cc(C(=O)P(=O)(O)O)ccc3[nH]2)CC4)c1` [Compound I-213, 2-[[(2S,11S)-2-[[(2S)-4-carbamoyl-1-[3-(5-[[(2S)-1-[(2S,4R)-4-hydroxy-2-[[(1S)-1-[4-(4-methyl-1,3-thiazol-5-yl)phenyl]ethyl]carbamoyl]pyrrolidin-1-yl]-3,3-dimethyl-1-oxobutan-2-yl]carbamoyl]pentyl)-5-methylphenoxy]butan-2-yl]carbamoyl]-12-oxo-1-azatricyclo[6.4.1.0^[4,13]]trideca-4(13),5,7-trien-11-yl]carbamoyl]-1H-indole-5-carbonylphosphonic acid], the DC50 under setting [1] was under 10 nM. Consider `Cc1ncsc1-c1ccc(CNC(=O)[C@@H]2C[C@@H](O)CN2C(=O)C(NC(=O)CCCCc2ccc(CNC(=O)[C@H](CCC(N)=O)NC(=O)[C@@H]3Cc4cccc5c4N3C(=O)[C@@H](NC(=O)c3cc4cc(C(=O)P(=O)(O)O)ccc4[nH]3)CC5)cc2)C(C)(C)C)cc1` (some centres unmarked) [Compound I-139], for which the half-maximal degradation concentration (DC50) under setting [1] is over 1000 nM.

For `Cn1c(=O)n([C@@H]2CCC(=O)NC2=O)c2ccc(C[C@H]3CC[C@@H](CC(=O)N4CC[C@H]5CC[C@@H](C(=O)N[C@@H](CCC(N)=O)C(=O)NC(c6ccccc6)c6ccccc6)N5C(=O)[C@@H](NC(=O)c5cc6cc(C(=O)P(=O)(O)O)ccc6[nH]5)C4)CC3)cc21` [Compound I-234, (2-(((5S,8S,10aR)-8-(((S)-5-amino-1-(benzhydrylamino)-1,5-dioxopentan-2-yl)carbamoyl)-3-(2-((1S,4R)-4-((1-((R)-2,6-dioxopiperidin-3-yl)-3-methyl-2-oxo-2,3-dihydro-1H-benzo[d]imidazol-5-yl)methyl)cyclohexyl)acetyl)-6-oxodecahydropyrrolo[1,2-a][1,5]diazocin-5-yl)carbamoyl)-1H-indole-5-carbonyl)phosphonic acid], the 50% degradation concentration (DC50) (read-out: STAT3 HiBiT A549 degradation 24 h: Average external-Abs DC50; A549, 24 h) lay within 10 to 100 nM.

On to `CN1C(=O)CCC(n2c(=O)n(C)c3cc(CCCCCCC(=O)N4CC[C@H]5CC[C@@H](C(=O)N[C@@H](CCC(N)=O)C(=O)NC(c6ccccc6)c6ccccc6)N5C(=O)[C@@H](NC(=O)c5cc6cc(C(=O)P(=O)(O)O)ccc6[nH]5)C4)ccc32)C1=O` (stereo partly drawn) [Compound I-150, 2-[[(5S,8S,10aR)-8-[[(1S)-3-carbamoyl-1-(diphenylmethylcarbamoyl)propyl]carbamoyl]-3-[7-[3-methyl-1-(1-methyl-2,6-dioxopiperidin-3-yl)-2-oxo-1,3-benzodiazol-5-yl]heptanoyl]-6-oxo-octahydropyrrolo[1,2-a][1,5]diazocin-5-yl]carbamoyl]-1H-indole-5-carbonylphosphonic acid], for which, under setting [1], the half-maximal degradation concentration (DC50) was over 1000 nM. Regarding `CC(C)c1ccc(CNC(=O)[C@H](CCC(N)=O)NC(=O)[C@@H]2Cc3cc(CCCCCCc4ccc5c(c4)n(C)c(=O)n5C4CCC(=O)NC4=O)cc4c3N2C(=O)[C@@H](NC(=O)c2cc3cc(C(=O)P(=O)(O)O)ccc3[nH]2)CC4)cc1` (stereo partly drawn) [Compound I-232, 2-[[(2S,11S)-2-[[(1S)-3-carbamoyl-1-[[(4-isopropylphenyl)methyl]carbamoyl]propyl]carbamoyl]-6-[6-[1-(2,6-dioxopiperidin-3-yl)-3-methyl-2-oxo-1,3-benzodiazol-5-yl]hexyl]-12-oxo-1-azatricyclo[6.4.1.0^[4,13]]trideca-4(13),5,7-trien-11-yl]carbamoyl]-1H-indole-5-carbonylphosphonic acid], under setting [1], the DC50 lay within 10 to 100 nM. `Cc1ncsc1-c1ccc([C@H](C)NC(=O)[C@@H]2C[C@@H](O)CN2C(=O)[C@@H](NC(=O)CCCCCc2ccc(F)c(OC[C@H](CCC(N)=O)NC(=O)[C@@H]3Cc4cccc5c4N3C(=O)[C@@H](NC(=O)c3cc4cc(C(=O)P(=O)(O)O)ccc4[nH]3)CC5)c2)C(C)(C)C)cc1` [Compound I-207]: the DC50 under setting [1] was 100 to 1000 nM. In the case of `Cn1c(=O)n(C2CCC(=O)NC2=O)c2ccc(CC3CCC(Cc4cc5c6c(c4)C[C@@H](C(=O)N[C@@H](CCC(N)=O)C(=O)NC(c4ccccc4)c4ccccc4)N6C(=O)[C@@H](NC(=O)c4cc6cc(C(=O)P(=O)(O)O)ccc6[nH]4)CC5)CC3)cc21` (stereo partly drawn) [Compound I-245, 2-[[(2S,11S)-2-[[(1S)-3-carbamoyl-1-(diphenylmethylcarbamoyl)propyl]carbamoyl]-6-[(4-[[1-(2,6-dioxopiperidin-3-yl)-3-methyl-2-oxo-1,3-benzodiazol-5-yl]methyl]cyclohexyl)methyl]-12-oxo-1-azatricyclo[6.4.1.0^[4,13]]trideca-4(13),5,7-trien-11-yl]carbamoyl]-1H-indole-5-carbonylphosphonic acid], the 50% degradation concentration (DC50) under setting [1] was 100 to 1000 nM. Consider `Cc1cc(CCCC(=O)N[C@H](C(=O)N2C[C@H](O)C[C@H]2C(=O)N[C@@H](C)c2ccc(-c3scnc3C)cc2)C(C)(C)C)c(F)c(OC[C@H](CCC(N)=O)NC(=O)[C@@H]2Cc3cccc4c3N2C(=O)[C@@H](NC(=O)c2cc3cc(C(=O)P(=O)(O)O)ccc3[nH]2)CC4)c1` [Compound I-235, diammonium 2-[[(2S,11S)-2-[[(2S)-4-carbamoyl-1-[2-fluoro-3-(3-[[(2S)-1-[(2S,4R)-4-hydroxy-2-[[(1S)-1-[4-(4-methyl-1,3-thiazol-5-yl)phenyl]ethyl]carbamoyl]pyrrolidin-1-yl]-3,3-dimethyl-1-oxobutan-2-yl]carbamoyl]propyl)-5-methyl-phenoxy]butan-2-yl]carbamoyl]-12-oxo-1-azatricyclo[6.4.1.0^[4,13]]trideca-4(13),5,7-trien-11-yl]carbamoyl]-1H-indole-5-carbonylphosphonate], for which, under setting [1], the DC50 is over 1000 nM.

For `Cc1ncsc1-c1ccc([C@H](C)NC(=O)[C@@H]2C[C@@H](O)CN2C(=O)[C@@H](NC(=O)CCCCCc2cc(F)cc(NC(=O)[C@H](CCC(N)=O)NC(=O)[C@@H]3Cc4cccc5c4N3C(=O)[C@@H](NC(=O)c3cc4cc(C(=O)P(=O)(O)O)ccc4[nH]3)CC5)c2)C(C)(C)C)cc1` [Compound I-264, 63 2-[[(2S,11S)-2-[[(1S)-3-carbamoyl-1-[[3-fluoro-5-(5-[[(2S)-1-[(2S,4R)-4-hydroxy-2-[[(1S)-1-[4-(4-methyl-1,3-thiazol-5-yl)phenyl]ethyl]carbamoyl]pyrrolidin-1-yl]-3,3-dimethyl-1-1-oxobutan-2-yl]carbamoyl]pentyl)phenyl]carbamoyl]propyl]carbamoyl]-12-oxo-1-azatricyclo[6.4.1.0^[4,13]]trideca-4(13),5,7-trien-11-yl]carbamoyl]-1H-indole-5-carbonylphosphonic acid 7], under setting [1], the 50% degradation concentration (DC50) was 10 to 100 nM. Consider `Cc1ncsc1-c1ccc(CNC(=O)[C@@H]2C[C@@H](O)CN2C(=O)[C@@H](NC(=O)CCCCCCCCOC[C@H](CCC(N)=O)NC(=O)[C@@H]2Cc3cccc4c3N2C(=O)[C@@H](NC(=O)c2cc3cc(C(=O)P(=O)(O)O)ccc3[nH]2)CC4)C(C)(C)C)cc1` [Compound I-154], for which the DC50 under setting [1] was over 1000 nM. On the same count and under the same terms, under `Cc1ncsc1-c1ccc([C@H](C)NC(=O)[C@@H]2C[C@@H](O)CN2C(=O)[C@@H](NC(=O)CCCCCc2cc(OC[C@H](CCC(N)=O)NC(=O)[C@@H]3Cc4cccc5c4N3C(=O)[C@@H](NC(=O)c3cc4cc(C(=O)P(=O)(O)O)ccc4[nH]3)CC5)ccc2F)C(C)(C)C)cc1` [Compound I-215] stands 10 to 100 nM.
